pIC50: −log10 of the molar value.
How the values were obtained:
[1] = molecular target: T1, thioredoxin reductase 1 (TXNRD1) (Rattus norvegicus, UniProt O89049); assay: DTNB reduction assay after […] h incubation; desalting shows irreversibility; format: biochemical
T1 construct: recombinant rat TXNRD1, wild-type
T1 sequence (O89049 1-499): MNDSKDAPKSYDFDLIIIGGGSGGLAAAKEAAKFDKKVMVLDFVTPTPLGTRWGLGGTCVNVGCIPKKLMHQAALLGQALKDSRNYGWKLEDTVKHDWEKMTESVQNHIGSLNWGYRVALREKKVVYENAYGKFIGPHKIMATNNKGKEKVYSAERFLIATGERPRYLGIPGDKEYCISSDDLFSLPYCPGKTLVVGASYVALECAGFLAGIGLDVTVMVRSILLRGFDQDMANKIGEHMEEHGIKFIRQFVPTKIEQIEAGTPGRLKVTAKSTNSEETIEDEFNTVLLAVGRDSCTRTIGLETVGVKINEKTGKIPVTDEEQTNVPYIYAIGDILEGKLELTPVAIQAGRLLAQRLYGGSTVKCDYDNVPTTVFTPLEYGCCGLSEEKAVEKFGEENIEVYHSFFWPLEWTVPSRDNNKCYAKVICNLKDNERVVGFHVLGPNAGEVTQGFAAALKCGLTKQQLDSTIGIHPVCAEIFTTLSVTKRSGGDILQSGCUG

[2] = molecular target: T1, thioredoxin reductase 1 (TXNRD1); assay: NADPH oxidation at […] nm with […] TXNRD1; format: biochemical

Compound	pIC50 [1]	NADPH oxidation at 340 nm with 30 nM TXNRD1 [2]
C[n+]1cc2c3c(ccc2c2ccc4cc5c(cc4c21)OCO5)OCO3 [San, sanguinarine]	4.33	
COc1ccc2c(c[n+](C)c3c4cc5c(cc4ccc23)OCO5)c1OC [Che, chelerythrine]	4.18	
O=C1C=CC(=O)c2c(O)cccc21 [juglone, 5-Hydroxy-1,4-naphthoquinone]		juglone, a substrate of TXNRD1, exhibited strong NADPH oxidation
